Test results reported in article PMC9482650, “Quantitative fragmentomics allow affinity mapping of interactomes” (Nature Communications, 2022).
Ends that are not written are not given here. * marks the point of attachment. Biotin = O=C1N[C@H]2[C@H](CS[C@H]2CCCCC(=O)*)N1; ttds = NCCCOCCOCCOCCCNC(=O)CCC(=O)*

Legend:
PDZ-proteins = test: Estimated PPI affinity, additive association constants of all PDZ sites; format: binding, human;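 further: calculated estimate, not directly measured: domain-motif affinities from holdup assays, association constants summed over all PDZ sites, one motif bound at a time, weak interactions ignored, giving a lower limit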
Excerpt: We used the previously generated domain-motif interactome, consisting of the composite affinities (i.e., taken from the most reliable holdup method; see above) to estimate affinities of PPIs. We assumed that a multidomain PDZ-protein can only interact with a single PBM at the same time (Eq. (4)):4 PDZ+PBM⇌(PDZ−PBM)site1,or(PDZ−PBM)site2,or(PDZ−PBM)siten
Using this approximation, as proposed by others before[45], the association constant of a multi-site interaction is the sum of the association constants of all sites (Eq. (5)):5 Ka,additive=[PDZ−PBM]site1+[PDZ−PBM]site2+…+[PDZ−PBM]siten/[PDZ]×[PBM]=∑Ka,site
The contribution of unmeasurable weak interactions was also neglected in the calculations.

HaCat cell extract preys = test: PBM-AP-MS, PBM peptide baits; format: binding, human

For HPV35E6 ({Biotin-ttds}-SKPTRRETEV), the “final additive pKd” value (PDZ-proteins; PDZ-protein AHNAK) was 3.5, the “final additive pKd” value (PDZ-proteins; PDZ-protein CASK) was 3.5 and the “final additive pKd” value (PDZ-proteins; PDZ-protein DLG1) was 5.779. The “final additive pKd” value (PDZ-proteins; PDZ-protein InaDl) was 3.5, the “final additive pKd” value (PDZ-proteins; PDZ-protein LAP2) was 3.6933 and the “final additive pKd” value (PDZ-proteins; PDZ-protein LIN7C) was 3.759. The “final additive pKd” value (PDZ-proteins; PDZ-protein LNX2) was 3.5, the “final additive pKd” value (PDZ-proteins; PDZ-protein MAGI3) was 5.407 and the “final additive pKd” value (PDZ-proteins; PDZ-protein MPP5) was 3.5. The “final additive pKd” value (PDZ-proteins; PDZ-protein MPP6) was 3.5, the “final additive pKd” value (PDZ-proteins; PDZ-protein MPP7) was 3.5 and the “final additive pKd” value (PDZ-proteins; PDZ-protein NHERF2) was 3.774. The “final additive pKd” value (PDZ-proteins; PDZ-protein PDLIM2) was 3.5, the “final additive pKd” value (PDZ-proteins; PDZ-protein PDLIM5) was 3.5 and the “final additive pKd” value (PDZ-proteins; PDZ-protein PDLIM7) was 3.5. The “final additive pKd” value (PDZ-proteins; PDZ-protein PSMD9) was 3.5, the “final additive pKd” value (PDZ-proteins; PDZ-protein SCRIB) was 5.233 and the “final additive pKd” value (PDZ-proteins; PDZ-protein SNTB1) was 4.679. For the same substance, the “final additive pKd” value (PDZ-proteins; PDZ-protein SNX27) was 4.662, the “final additive pKd” value (PDZ-proteins; PDZ-protein SYNJ2BP) was 5.6853 and the “final additive pKd” value (PDZ-proteins; PDZ-protein TX1B3) was 4.927. The “Enrichment values compared to biotin controls” value (HaCat cell extract preys; prey AHNAK2, PBM peptide bait) was 0.845, the “Enrichment values compared to biotin controls” value (HaCat cell extract preys; prey AHNAK, PBM peptide bait) was 0.7 and the “Enrichment values compared to biotin controls” value (HaCat cell extract preys; prey DLG1, PBM peptide bait) was 5.3. The “Enrichment values compared to biotin controls” value (HaCat cell extract preys; prey GORASP2, PBM peptide bait) was 0.7, the “Enrichment values compared to biotin controls” value (HaCat cell extract preys; prey InaDl, PBM peptide bait) was 0.6 and the “Enrichment values compared to biotin controls” value (HaCat cell extract preys; prey LAP2, PBM peptide bait) was 0.849. The “Enrichment values compared to biotin controls” value (HaCat cell extract preys; prey LIN7C, PBM peptide bait) was 269.9, the “Enrichment values compared to biotin controls” value (HaCat cell extract preys; prey MAGI3, PBM peptide bait) was 4.3 and the “Enrichment values compared to biotin controls” value (HaCat cell extract preys; prey MPP5, PBM peptide bait) was 0.7. The “Enrichment values compared to biotin controls” value (HaCat cell extract preys; prey MPP6, PBM peptide bait) was 0.8, the “Enrichment values compared to biotin controls” value (HaCat cell extract preys; prey MPP7, PBM peptide bait) was 30.8 and the “Enrichment values compared to biotin controls” value (HaCat cell extract preys; prey NHERF2, PBM peptide bait) was 0.665. For the same substance, the “Enrichment values compared to biotin controls” value (HaCat cell extract preys; prey NHERF, PBM peptide bait) was 0.215, the “Enrichment values compared to biotin controls” value (HaCat cell extract preys; prey PDLIM1, PBM peptide bait) was 0.569 and the “Enrichment values compared to biotin controls” value (HaCat cell extract preys; prey PDLIM2, PBM peptide bait) was 1.6. The “Enrichment values compared to biotin controls” value (HaCat cell extract preys; prey PDLIM4, PBM peptide bait) was 1.0, the “Enrichment values compared to biotin controls” value (HaCat cell extract preys; prey PDLIM5, PBM peptide bait) was 1.1 and the “Enrichment values compared to biotin controls” value (HaCat cell extract preys; prey PDLIM7, PBM peptide bait) was 0.422. For the same substance, the “Enrichment values compared to biotin controls” value (HaCat cell extract preys; prey PTPN3, PBM peptide bait) was 0.9, the “Enrichment values compared to biotin controls” value (HaCat cell extract preys; prey SCRIB, PBM peptide bait) was 3.1 and the “Enrichment values compared to biotin controls” value (HaCat cell extract preys; prey SNTB2, PBM peptide bait) was 7.5. The “Enrichment values compared to biotin controls” value (HaCat cell extract preys; prey SNX27, PBM peptide bait) was 3.3, the “Enrichment values compared to biotin controls” value (HaCat cell extract preys; prey SYNJ2BP, PBM peptide bait) was 25.2 and the “Fold changes HaCat, SYNJ2BP” value (HaCat cell extract preys; prey SYNJ2BP, PBM peptide bait) was 25.2. The “Enrichment values compared to biotin controls” value (HaCat cell extract preys; prey TJP1, PBM peptide bait) was 1.3, the “Enrichment values compared to biotin controls” value (HaCat cell extract preys; prey TJP2, PBM peptide bait) was 1.8 and the “Enrichment values compared to biotin controls” value (HaCat cell extract preys; prey TX1B3, PBM peptide bait) was 3.3.
